Assay results published in patent publication US12201610B2, “Compositions comprising aticaprant” (Janssen Pharmaceuticals, Inc., priority 2022, dated 2025).

Test system: subjects with MDD
Assay: MADRS total score, adjunctive aticaprant vs placebo in MDD (Example 6)
[1] = eITT Analysis Set, High anhedonia, Treatment Week 1
[2] = eITT Analysis Set, High anhedonia, Treatment Week 3
[3] = eITT Analysis Set, High anhedonia, Treatment Week 4
[4] = eITT Analysis Set, High anhedonia, Treatment Week 5
[5] = eITT Analysis Set, High anhedonia, Treatment Week 6
[6] = eITT Analysis Set, Low anhedonia, Treatment Week 1
[7] = eITT Analysis Set, Low anhedonia, Treatment Week 3
[8] = eITT Analysis Set, Low anhedonia, Treatment Week 4
[9] = eITT Analysis Set, Low anhedonia, Treatment Week 5
[10] = eITT Analysis Set, Low anhedonia, Treatment Week 6
[11] = eITT, Treatment Week 1, 10 mg adjunctive to SSRI/SNRI
[12] = eITT, Treatment Week 3, 10 mg adjunctive to SSRI/SNRI
[13] = eITT, Treatment Week 4, 10 mg adjunctive to SSRI/SNRI
[14] = eITT, Treatment Week 5, 10 mg adjunctive to SSRI/SNRI
[15] = eITT, Treatment Week 6, 10 mg adjunctive to SSRI/SNRI

Question: Which results are given for Cc1cc(C)cc(C2CCCN2Cc2ccc(Oc3ccc(C(N)=O)cc3F)cc2)c1 (centres unmarked) [aticaprant, 3-fluoro-4-4-2-(3,5-dimethylphenyl)pyrrolidin-1-yl-methylphenoxybenzamide]?
Answer: Change from Treatment Baseline in MADRS Total Score, Least Squares Mean (Standard Error) (Treatment Week 6, both responders and non-responders during placebo lead-in, 10 mg): −9.6 ± 0.79 score on a scale; MADRS Total Score Least Squares Mean Difference, point estimate (Treatment Week 6, both responders and non-responders during placebo lead-in, 10 mg vs placebo): −3.1 score on a scale; MADRS Total Score Effect size [1]: −0.39; MADRS Total Score Mean Change from Baseline (SD) [1]: −4.6 (5.25); MADRS Total Score Mean Change to Placebo (SD pooled) [1]: −1.8 (4.69); MADRS Total Score Effect size [2]: −0.46; MADRS Total Score Mean Change from Baseline (SD) [2]: −6.7 (6.83); MADRS Total Score Mean Change to Placebo (SD pooled) [2]: −3.0 (6.59); MADRS Total Score Effect size [3]: −0.30; MADRS Total Score Mean Change from Baseline (SD) [3]: −8.5 (7.26); MADRS Total Score Mean Change to Placebo (SD pooled) [3]: −2.2 (7.30); MADRS Total Score Effect size [4]: −0.33; MADRS Total Score Mean Change from Baseline (SD) [4]: −9.7 (8.18); MADRS Total Score Mean Change to Placebo (SD pooled) [4]: −2.6 (7.93); MADRS Total Score Effect size [5]: −0.38; MADRS Total Score Mean Change from Baseline (SD) [5]: −11.5 (8.95); MADRS Total Score Mean Change to Placebo (SD pooled) [5]: −3.4 (8.98); MADRS Total Score Effect size [6]: −0.12; MADRS Total Score Mean Change from Baseline (SD) [6]: −2.3 (5.03); MADRS Total Score Mean Change to Placebo (SD pooled) [6]: −0.5 (4.30); MADRS Total Score Effect size [7]: −0.01; MADRS Total Score Mean Change from Baseline (SD) [7]: −4.9 (5.99); MADRS Total Score Mean Change to Placebo (SD pooled) [7]: −0.1 (5.85); MADRS Total Score Effect size [8]: 0.01; MADRS Total Score Mean Change from Baseline (SD) [8]: −6.4 (7.40); MADRS Total Score Mean Change to Placebo (SD pooled) [8]: 0.0 (6.80); MADRS Total Score Effect size [9]: 0.05; MADRS Total Score Mean Change from Baseline (SD) [9]: −7.2 (6.46); MADRS Total Score Mean Change to Placebo (SD pooled) [9]: 0.3 (6.65); MADRS Total Score Effect size [10]: −0.11; MADRS Total Score Mean Change from Baseline (SD) [10]: −9.2 (8.01); MADRS Total Score Mean Change to Placebo (SD pooled) [10]: −0.9 (8.13); MADRS Total Score Change from Baseline LSMean (SE), MMRM [11]: −3.2; MADRS Total Score LSMean Difference (SE) Treatment - Placebo, MMRM [11]: −1.2 (1.24); MADRS Total Score Mean (SD) [11]: 25.4; MADRS Total Score Mean Change from Baseline (SD) [11]: −3.3; MADRS Total Score Mean Change to Placebo (SD pooled) [11]: −1.1 (4.52); MADRS Total Score Mean Change from Baseline (SD) (eITT, Treatment Week 1, 10 mg adjunctive to SSRI/SNRI, listed as Aticaprant): −3.3 (5.21); MADRS Total Score Effect size (eITT, Treatment Week 1, vs placebo, negative favors aticaprant): −0.24; MADRS Total Score Change from Baseline LSMean (SE), MMRM [12]: −5.6; MADRS Total Score LSMean Difference (SE) Treatment - Placebo, MMRM [12]: −1.5 (1.25); MADRS Total Score Mean (SD) [12]: 23.1; MADRS Total Score Mean Change from Baseline (SD) [12]: −5.7; MADRS Total Score Mean Change to Placebo (SD pooled) [12]: −1.4 (6.18); MADRS Total Score Mean Change from Baseline (SD) (eITT, Treatment Week 3, 10 mg adjunctive to SSRI/SNRI, listed as Aticaprant): −5.7 (6.38); MADRS Total Score Effect size (eITT, Treatment Week 3, vs placebo, negative favors aticaprant): −0.22; MADRS Total Score Change from Baseline LSMean (SE), MMRM [13]: −7.3; MADRS Total Score LSMean Difference (SE) Treatment - Placebo, MMRM [13]: −1.1 (1.25); MADRS Total Score Mean (SD) [13]: 21.5; MADRS Total Score Mean Change from Baseline (SD) [13]: −7.3; MADRS Total Score Mean Change to Placebo (SD pooled) [13]: −0.9 (7.00); MADRS Total Score Mean Change from Baseline (SD) (eITT, Treatment Week 4, 10 mg adjunctive to SSRI/SNRI, listed as Aticaprant): −7.3 (7.35); MADRS Total Score Effect size (eITT, Treatment Week 4, vs placebo, negative favors aticaprant): −0.14; MADRS Total Score Change from Baseline LSMean (SE), MMRM [14]: −8.7; MADRS Total Score LSMean Difference (SE) Treatment - Placebo, MMRM [14]: −1.5 (1.25); MADRS Total Score Mean (SD) [14]: 20.5; MADRS Total Score Mean Change from Baseline (SD) [14]: −8.4; MADRS Total Score Mean Change to Placebo (SD pooled) [14]: −1.1 (7.25); MADRS Total Score Mean Change from Baseline (SD) (eITT, Treatment Week 5, 10 mg adjunctive to SSRI/SNRI, listed as Aticaprant): −8.4 (7.36); MADRS Total Score Effect size (eITT, Treatment Week 5, vs placebo, negative favors aticaprant): −0.14; percentage of subjects with MADRS remission (MADRS total score ≤10) (eITT, Treatment Week 6): 16.9%; percentage of subjects with ≥30% improvement in MADRS total score (eITT, Treatment Week 6): 57.6%; percentage of subjects with ≥50% improvement in MADRS total score (eITT, Treatment Week 6): 35.6%; MADRS Total Score Change from Baseline LSMean (SE), MMRM [15]: −10.1; MADRS Total Score Mean (SD) [15]: 18.6; MADRS Total Score Mean Change from Baseline (SD) [15]: −10.2 (8.44); MADRS Total Score Mean Change to Placebo (SD pooled) [15]: −2.0 (8.49); MADRS total score change, difference between aticaprant and placebo (eITT, Treatment Week 6, high anhedonia level (SHAPS total score ≥38 at treatment baseline)): −3.4; MADRS total score observed effect size (eITT, Treatment Week 6, high anhedonia level (SHAPS ≥38)): 0.38; MADRS total score observed effect size (eITT, Treatment Week 6, low anhedonia level (20≤ SHAPS <38)): 0.11; MADRS total score change, difference between aticaprant and placebo (eITT, Treatment Week 6, low anhedonia level (20≤ baseline SHAPS total score <38)): −0.9
